According to US11021457B2, “Class of isoindolone-imide ring-1,3-dione-2-ene compounds, composition and use thereof” (WIGEN BIOMEDICINE TECHNOLOGY (SHANGHAI) CO., LTD., priority 2017, dated 2021):

Assays:
Assay type in all cases: cell-based
RPMI-8226 = assay: Inhibition of tumor cell proliferation, CellTiter-Glo, RPMI-8226; conditions: compound concentration 50 μM, 72 hours; for cell survival rate (% of control) at 50 µM: Homo sapiens, RPMI-8226, read-out: Inhibitory activity against proliferation (cell survival rate) RPMI-8226
Procedure, shortened: (§1)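 Cells seeded at 2000-10000 cells/well in complete medium at 37° C., 5% CO2; suspension lines dosed immediately, adherent lines after attachment. Viability by CellTiter-Glo luminescence at 72 h; survival % from blank-corrected RLU vs control. Scored at 50 μM: + (60-<90%), ++ (>30-60%), +++ (≤30%).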

BxPC-3 = assay: Inhibition of tumor cell proliferation, CellTiter-Glo, BxPC-3; conditions: compound concentration 50 μM, 72 hours; for cell survival rate (%) at 50 µM: Homo sapiens, BXPC-3, read-out: Inhibitory activity against proliferation (cell survival rate) BxPC-3
Procedure, shortened: as §1

K562 = assay: Inhibition of tumor cell proliferation, CellTiter-Glo, K562; conditions: compound concentration 50 μM, 72 hours; for cell survival rate (%) at 50 µM: Homo sapiens, K562, read-out: Inhibitory activity against proliferation (cell survival rate) K562
Procedure, shortened: as §1

A549 = assay: Inhibition of tumor cell proliferation, CellTiter-Glo, A549; conditions: compound concentration 50 μM, 72 hours; for cell survival rate (% of control) at 50 µM: Homo sapiens, A549, read-out: Inhibitory activity against proliferation (cell survival rate) A549
Procedure, shortened: as §1

SU-DHL6 = assay: Inhibition of tumor cell proliferation, CellTiter-Glo, SU-DHL6; conditions: compound concentration 50 μM, 72 hours; for cell survival rate (% of control) at 50 µM: Homo sapiens, SU-DHL-6, read-out: Inhibitory activity against proliferation (cell survival rate) SU-DHL6
Procedure, shortened: as §1

MDA-MB-453 = assay: Inhibition of tumor cell proliferation, CellTiter-Glo, MDA-MB-453; conditions: compound concentration 50 μM, 72 hours; for cell survival rate (%) at 50 µM: Homo sapiens, MDA-MB-453, read-out: Inhibitory activity against proliferation (cell survival rate) MDA-MB-453
Procedure, shortened: as §1

SMILES	Inhibitory activity against proliferation (cell survival rate) RPMI-8226 (RPMI-8226)	Inhibitory activity against proliferation (cell survival rate) BxPC-3 (BxPC-3)	Inhibitory activity against proliferation (cell survival rate) K562 (K562)	Inhibitory activity against proliferation (cell survival rate) A549 (A549)	Inhibitory activity against proliferation (cell survival rate) SU-DHL6 (SU-DHL6)	Inhibitory activity against proliferation (cell survival rate) MDA-MB-453 (MDA-MB-453)	cell survival rate (% of control) at 50 µM (RPMI-8226)	cell survival rate (%) at 50 µM (BxPC-3)	cell survival rate (%) at 50 µM (K562)	cell survival rate (% of control) at 50 µM (A549)	cell survival rate (% of control) at 50 µM (SU-DHL6)	cell survival rate (%) at 50 µM (MDA-MB-453)
O=C1CCC(N2Cc3c(NC=C4C(=O)CC(c5ccc(OC(F)(F)F)cc5)CC4=O)cccc3C2=O)C(=O)N1 (stereo not drawn) [Compound 22]	+ (60≤survival rate (%)<90)	++ (30<survival rate (%)≤60)	+ (60≤survival rate (%)<90)	+ (60≤survival rate (%)<90)	+ (60≤survival rate (%)<90)	++ (30<survival rate (%)≤60)	–	–	–	–	–	–
O=C1CCC(N2C(=O)c3cccc(NC(=O)CCC(=O)OCCN4CCN(CCNC=C5C(=O)CC(c6ccccc6)CC5=O)CC4)c3C2=O)C(=O)N1 (stereo not drawn) [Compound 57]	+ (60≤survival rate (%)<90)	+ (60≤survival rate (%)<90)	+ (60≤survival rate (%)<90)	+ (60≤survival rate (%)<90)	+++ (survival rate (%)≤30)	+ (60≤survival rate (%)<90)	–	–	–	–	–	–
O=C1CCC(N2Cc3c(NC(CO)=C4C(=O)CC(c5ccccc5)CC4=O)cccc3C2=O)C(=O)N1 (stereo not drawn) [Compound 74]	+ (60≤survival rate (%)<90)	+ (60≤survival rate (%)<90)	+ (60≤survival rate (%)<90)	+ (60≤survival rate (%)<90)	+ (60≤survival rate (%)<90)	+ (60≤survival rate (%)<90)	–	–	–	–	–	–
O=C1CCC(N2Cc3c(NC=C4C(=O)CC(c5ccccc5)C(F)C4=O)cccc3C2=O)C(=O)N1 (stereo not drawn) [Compound 28]	–	–	–	–	–	–	≤ 30%	30 to 60%	≤ 30%	≤ 30%	≤ 30%	≤ 30%
O=C1CCC(N2Cc3c(NC(=O)c4cccc(NC=C5C(=O)CC(c6ccccc6)CC5=O)c4)cccc3C2=O)C(=O)N1 (stereo not drawn) [Compound 53]	+++ (survival rate (%)≤30)	+ (60≤survival rate (%)<90)	+++ (survival rate (%)≤30)	+++ (survival rate (%)≤30)	+++ (survival rate (%)≤30)	++ (30<survival rate (%)≤60)	–	–	–	–	–	–
O=C1CCC(N2Cc3c(NC(=O)NCCNC=C4C(=O)CC(c5ccccc5)CC4=O)cccc3C2=O)C(=O)N1 (stereo not drawn) [Compound 77]	+ (60≤survival rate (%)<90)	+ (60≤survival rate (%)<90)	+++ (survival rate (%)≤30)	+++ (survival rate (%)≤30)	+ (60≤survival rate (%)<90)	+++ (survival rate (%)≤30)	–	–	–	–	–	–
O=C1CCC(N2C(=O)c3cccc(OCC(=O)N4CCN(CCNC=C5C(=O)CC(c6ccccc6)CC5=O)CC4)c3C2=O)C(=O)N1 (stereo not drawn) [Compound 105]	+ (60≤survival rate (%)<90)	++ (30<survival rate (%)≤60)	+ (60≤survival rate (%)<90)	+++ (survival rate (%)≤30)	+ (60≤survival rate (%)<90)	++ (30<survival rate (%)≤60)	–	–	–	–	–	–
O=C1CCC(N2Cc3c(NC=C4C(=O)CC(c5ccc(O)cc5)CC4=O)cccc3C2=O)C(=O)N1 (stereo not drawn) [Compound 34]	++ (30<survival rate (%)≤60)	+ (60≤survival rate (%)<90)	++ (30<survival rate (%)≤60)	+ (60≤survival rate (%)<90)	+++ (survival rate (%)≤30)	+++ (survival rate (%)≤30)	–	–	–	–	–	–
O=C1CCC(N2Cc3c(NC(=O)OCCNC=C4C(=O)CC(c5ccccc5)CC4=O)cccc3C2=O)C(=O)N1 (stereo not drawn) [Compound 78]	+ (60≤survival rate (%)<90)	+ (60≤survival rate (%)<90)	+++ (survival rate (%)≤30)	+++ (survival rate (%)≤30)	+ (60≤survival rate (%)<90)	+++ (survival rate (%)≤30)	–	–	–	–	–	–
O=C1CCC(N2Cc3c(NC=C4C(=O)CC(c5ccccc5F)CC4=O)cccc3C2=O)C(=O)N1 (stereo not drawn) [Compound 24]	+ (60≤survival rate (%)<90)	++ (30<survival rate (%)≤60)	+ (60≤survival rate (%)<90)	++ (30<survival rate (%)≤60)	+++ (survival rate (%)≤30)	++ (30<survival rate (%)≤60)	–	–	–	–	–	–
O=C(/C=C\CN1CCN(CCNC=C2C(=O)CC(c3ccccc3)CC2=O)CC1)Nc1cccc2c1CN(C1CCC(=O)NC1=O)C2=O (stereo not drawn) [Compound 93]	+++ (survival rate (%)≤30)	+ (60≤survival rate (%)<90)	++ (30<survival rate (%)≤60)	++ (30<survival rate (%)≤60)	+++ (survival rate (%)≤30)	++ (30<survival rate (%)≤60)	–	–	–	–	–	–
O=C1CCC(N2Cc3c(NC(=O)c4ccc(NC=C5C(=O)CC(c6ccccc6)CC5=O)nc4)cccc3C2=O)C(=O)N1 (stereo not drawn) [Compound 66]	+ (60≤survival rate (%)<90)	+ (60≤survival rate (%)<90)	+++ (survival rate (%)≤30)	+++ (survival rate (%)≤30)	+++ (survival rate (%)≤30)	++ (30<survival rate (%)≤60)	–	–	–	–	–	–
Cc1cc(C(=O)Nc2cccc3c2CN(C2CCC(=O)NC2=O)C3=O)ccc1NC=C1C(=O)CC(c2ccccc2)CC1=O (stereo not drawn) [Compound 51]	+++ (survival rate (%)≤30)	+ (60≤survival rate (%)<90)	+ (60≤survival rate (%)<90)	+ (60≤survival rate (%)<90)	+ (60≤survival rate (%)<90)	+ (60≤survival rate (%)<90)	–	–	–	–	–	–
CC1(C#N)C(=O)/C(=C/Nc2cccc3c2CN(C2CCC(=O)NC2=O)C3=O)C(=O)CC1c1ccccc1 (stereo not drawn) [Compound 139]	–	–	–	–	–	–	≤ 30%	60 to 90%	≤ 30%	60 to 90%	≤ 30%	≤ 30%
CC1C(=O)/C(=C/Nc2cccc3c2CN(C2CCC(=O)NC2=O)C3=O)C(=O)CC1c1ccccc1 (stereo not drawn) [Compound 127]	–	–	–	–	–	–	60 to 90%	60 to 90%	60 to 90%	60 to 90%	≤ 30%	60 to 90%
O=C1CCC(N2Cc3c(NC=C4C(=O)CC(/C=C/c5ccccc5)CC4=O)cccc3C2=O)C(=O)N1 (stereo not drawn) [Compound 120]	++ (30<survival rate (%)≤60)	+ (60≤survival rate (%)<90)	++ (30<survival rate (%)≤60)	+ (60≤survival rate (%)<90)	++ (30<survival rate (%)≤60)	++ (30<survival rate (%)≤60)	–	–	–	–	–	–
O=C1CCC(N2Cc3c(NC=C4C(=O)CC(c5csc6ccccc56)CC4=O)cccc3C2=O)C(=O)N1 (stereo not drawn) [Compound 37]	+ (60≤survival rate (%)<90)	+ (60≤survival rate (%)<90)	+ (60≤survival rate (%)<90)	+ (60≤survival rate (%)<90)	+++ (survival rate (%)≤30)	+++ (survival rate (%)≤30)	–	–	–	–	–	–
